One data set concerns Acinetobacter baumannii. As to the kind of experiment: Antibacterial activity against Acinetobacter baumannii ATCC 19606 incubated for 18 to 24 hrs by broth microdilution method. It is filed as functional. Conditions: time 18-24 hrs.
Data set [1] has as its system Staphylococcus epidermidis. The data set is described as follows: Antibacterial activity against Staphylococcus epidermidis ATCC 12228 incubated for 18 to 24 hrs by broth microdilution method. It is filed as functional. Conditions: time 18-24 hrs.
In a further data set the test system is Klebsiella pneumoniae. The data set is described as follows: Antibacterial activity against Klebsiella pneumoniae ATCC 700603 incubated for 18 to 24 hrs by broth microdilution method. Conditions: time 18-24 hrs. It is filed as functional.
A further data set has as its system Pseudomonas aeruginosa. As to the kind of experiment: Antibacterial activity against Pseudomonas aeruginosa ATCC 27853 incubated for 18 to 24 hrs by broth microdilution method. It is filed as functional. Conditions: time 18-24 hrs.
For another data set, the system named is Escherichia coli. The data set is described as follows: Antibacterial activity against Escherichia coli ATCC 25922 incubated for 18 to 24 hrs by broth microdilution method. Type of data set: functional. Conditions: time 18-24 hrs.
The subject of data set [2] is Staphylococcus aureus. The data set is described as follows: Antibacterial activity against Staphylococcus aureus ATCC 25923 assessed as fold increase in MIC pretreated with Zncl2 followed by compound addition and measured after 2 hrs by broth microdilution method. Type of data set: functional.
Data set [3] concerns Staphylococcus aureus. As to the kind of experiment: Antibacterial activity against Staphylococcus aureus ATCC 25923 assessed as fold increase in MIC pretreated with Na-cl followed by compound addition and measured after 2 hrs by broth microdilution method. It is filed as functional.
Data set [4] relates to Staphylococcus aureus. The data set is described as follows: Antibacterial activity against Staphylococcus aureus ATCC 25923 incubated for 18 to 24 hrs by broth microdilution method. It is filed as functional. Conditions: time 18-24 hrs.
Another data set deals with Bacillus subtilis. The data set is described as follows: Antibacterial activity against Bacillus subtilis ATCC 23857 incubated for 18 to 24 hrs by broth microdilution method. It is filed as functional. Conditions: time 18-24 hrs.
The subject of the next data set is Enterococcus faecalis. As to the kind of experiment: Antibacterial activity against Enterococcus faecalis ATCC 29212 incubated for 18 to 24 hrs by broth microdilution method. Conditions: time 18-24 hrs. It is filed as functional.
A further data set concerns Erythrocyte. As to the kind of experiment: Hemolytic activity in mouse red blood cell assessed as hemolysis incubated for 1 hr. Type of data set: toxicity, cell-based.

From ChEMBL document CHEMBL5512645, “A novel antimicrobial peptide with broad-spectrum and exceptional stability derived from the natural peptide Brevicidine” (Eur J Med Chem, 2024) come the findings set out here.

Take `CCC(C)CCC(=O)N[C@H](CC(N)=O)C(=O)N[C@H](Cc1c[nH]c2ccccc12)C(=O)N[C@H](Cc1c[nH]c2ccccc12)C(=O)N[C@H](CCCN)C(=O)N[C@@H](CCCN)C(=O)NCC(=O)N[C@H](CCCN)C(=O)N[C@@H](Cc1c[nH]c2ccccc12)C(=O)N[C@@H]1C(=O)N[C@@H]([C@@H](C)CC)C(=O)NCC(=O)N[C@@H](CO)C(=O)O[C@@H]1C` (mixture of isomers): the minimum inhibitory concentration (MIC) in the data set on Acinetobacter baumannii came to 32 µM; in [1] it was 32 µM; in the data set with Klebsiella pneumoniae it was 8 µM; in the data set on Pseudomonas aeruginosa it was 4 µM; in the data set with Escherichia coli, 8 µM; against Staphylococcus aureus [4], 32 µM. Moreover, the figures for the MIC in the data set on Bacillus subtilis and in the data set on Enterococcus faecalis were 16 µM and 128 µM, respectively. Besides, the “fold change (FC)” value with Staphylococcus aureus [2] and in the data set with Staphylococcus aureus [3] was 4 throughout. The MHC in the data set with Erythrocyte amounted to 64 µM.
